Data on 1 compound can be found in patent US12679812B2, “18F-labeled triazole containing PSMA inhibitors” (Cornell University, priority 2016, dated 2026).

Data set [1] has as its system LNCaP tumor xenografts. The settings on record: 1 h post injection, reported; cited from earlier work.
For data set [2], the system named is LNCaP xenograft tumor. Briefly: microPET/CT imaging of LNCaP xenograft tumor-bearing mice. The data set is classed as in vivo. On the procedure:
Inoculation of mice with xenografts. All animal studies were approved by the Institutional Animal Care and Use Committee of Weill Cornell Medicine and were undertaken in accordance with the guidelines set forth by the USPHS Policy on Humane Care and Use of Laboratory Animals. Animals were housed under standard conditions in approved facilities with 12 h light/dark cycles. Food and water was provided ad libitum throughout the course of the studies. Male inbred athymic nu/nu mice were purchased from The Jackson Laboratory. For inoculation in mice, LNCaP cells were suspended at 4×10^7 cells/mL in a 1:1 mixture of PBS:Matrigel (BD Biosciences). Each mouse was injected in the left flank with 0.25 mL of the cell suspension. The mice were imaged when the tumors reached approximately 200-400 mm^3, while biodistributions were conducted when tumors were in the range 100-400 mm^3.
Imaging. […] Specific activity was greater than […]. The mice were imaged by pPET/CT (Inveon™; Siemens Medical Solutions, Inc.) at 1 h, 2 h, 4 h, and 6 h post-injection ([^18F]fluorinated compounds) or 1 h and 3 h post-injection ([^68Ga]Ga-PSMA-HBED-CC). Total acquisition time was thirty minutes, and a CT scan was obtained either immediately before or immediately after the acquisition for both anatomical co-registration and attenuation correction. The data were reconstructed using the commercial Inveon™ software supplied by the vendor. Tumor uptake was estimated by drawing a region of interest (ROI).

Marks after values point to notes of the source that are not given here.

Regarding `O=C(O)CCC(NC(=O)NC(CCCCNC(=O)c1ccc(F)nc1)C(=O)O)C(=O)O` (stereo not shown) [DCFPyL, 2-(3-{1-Carboxy-5-[(6-fluoropyridine-3-carbonyl)-amino]-pentyl}-ureido)-pentanedioic acid, reference compound], the SUVmax in data set [1] was 1.1±0.1. For the same compound, in data set [2] (image derived calculation of tumor uptake (microPET/CT), at time of maximum uptake), the “Max. LNCaP Tumor Uptake” value is 5.71 ± 0.61^c % ID/g. Moreover, the “Time p.i. of max. LNCaP tumor uptake” value in data set [2] (microPET/CT imaging at 1, 2, 4, 6 h) turned out to be 1 h. Also, the Tumor washout result in data set [2] (microPET/CT imaging up to 6 h post injection) was “rapid tumor washout”.
